Experimental data reported in ChEMBL document CHEMBL1201862, “PubChem BioAssay data set” (2004).
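Protocol summary: plate cells (96-well), add compound at 5 concentrations, incubate 48 h, interpolate endpoints linearly. Here, GI50 denotes the concentration required for 50% inhibition of growth.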 Active and inactive are the calls of the source. Cut-off read from the data, not from the text of the source: active = GI50 up to about 1.1 µM and inactive = higher.

Columns and labels:
Test in all cases: NCI anticancer screen, dose series, 48 h
SK-OV-3 = system: SK-OV-3
SW-620 = system: SW-620
HT-29 = system: HT-29
U-251 = system: U-251
NCI-H226 = system: NCI-H226
M14 = system: M14
A549 = system: A549
HL-60 = system: HL-60
IGROV-1 = system: IGROV-1
OVCAR-4 = system: OVCAR-4
K562 = system: K562
SNB-19 = system: SNB-19
HOP-92 = system: HOP-92
SR = system: SR
COLO 205 = system: COLO 205
UACC-62 = system: UACC-62

Structure (SMILES)	GI50 (SK-OV-3)	GI50 (SW-620)	GI50 (HT-29)	GI50 (U-251)	GI50 (NCI-H226)	GI50 (M14)	GI50 (A549)	GI50 (HL-60)	GI50 (IGROV-1)	GI50 (OVCAR-4)	GI50 (K562)	GI50 (SNB-19)	GI50 (HOP-92)	GI50 (SR)	GI50 (COLO 205)	GI50 (UACC-62)
CC(=O)C1=C(C)Cn2c(=O)c3ccccc3c(=O)n2C1	> 100 µM (inactive)	> 100 µM (inactive)	> 100 µM (inactive)	> 100 µM (inactive)	> 100 µM (inactive)	> 100 µM (inactive)	> 100 µM (inactive)	> 100 µM (inactive)	> 100 µM (inactive)	> 100 µM (inactive)	> 100 µM (inactive)	> 100 µM (inactive)	> 100 µM (inactive)	> 100 µM (inactive)	> 100 µM (inactive)	–
COc1ccc(S(=O)(=O)NNS(C)(=O)=O)cc1	–	> 100 µM (inactive)	> 100 µM (inactive)	> 100 µM (inactive)	> 100 µM (inactive)	> 100 µM (inactive)	> 100 µM (inactive)	> 100 µM (inactive)	> 100 µM (inactive)	> 100 µM (inactive)	> 100 µM (inactive)	> 100 µM (inactive)	–	> 100 µM (inactive)	> 100 µM (inactive)	> 100 µM (inactive)
CCOC(=O)C1=C(C(=O)OCC)C2c3ccccc3C=CN2C(C(=O)OCC)=C(SC)S1 (configuration not stated)	> 100 µM (inactive)	92.9 µM (inactive)	> 100 µM (inactive)	50.7 µM (inactive)	> 100 µM (inactive)	89.1 µM (inactive)	47.6 µM (inactive)	25.9 µM (inactive)	> 100 µM (inactive)	–	41.8 µM (inactive)	> 100 µM (inactive)	–	19.3 µM (inactive)	91.6 µM (inactive)	58.1 µM (inactive)
CN(C)C(c1ccccc1)C(O)c1ccccc1 (configuration not stated)	> 100 µM (inactive)	> 100 µM (inactive)	> 100 µM (inactive)	> 100 µM (inactive)	> 100 µM (inactive)	> 100 µM (inactive)	> 100 µM (inactive)	> 100 µM (inactive)	> 100 µM (inactive)	–	> 100 µM (inactive)	> 100 µM (inactive)	–	–	> 100 µM (inactive)	> 100 µM (inactive)
CC(=O)Nc1ccc(-c2nnc(SCC(=O)Nc3ccc(C)cc3)o2)cc1	49.2 µM (inactive)	19.1 µM (inactive)	17 µM (inactive)	19.4 µM (inactive)	27.5 µM (inactive)	16.1 µM (inactive)	40.3 µM (inactive)	27.8 µM (inactive)	12.9 µM (inactive)	17.7 µM (inactive)	42.4 µM (inactive)	–	18.4 µM (inactive)	28 µM (inactive)	17.7 µM (inactive)	16.9 µM (inactive)
Nc1nc2c(ncn2C2OC(CO)C(O)C2N)c(=O)[nH]1 (configuration not stated)	> 100 µM (inactive)	> 100 µM (inactive)	> 100 µM (inactive)	> 100 µM (inactive)	–	> 100 µM (inactive)	97.1 µM (inactive)	97.9 µM (inactive)	> 100 µM (inactive)	–	86.9 µM (inactive)	> 100 µM (inactive)	> 100 µM (inactive)	–	> 100 µM (inactive)	> 100 µM (inactive)
CN(C)CCC(CCN(C)C)=NOC(=O)c1ccccc1	> 100 µM (inactive)	> 100 µM (inactive)	> 100 µM (inactive)	> 100 µM (inactive)	–	> 100 µM (inactive)	> 100 µM (inactive)	> 100 µM (inactive)	> 100 µM (inactive)	> 100 µM (inactive)	> 100 µM (inactive)	> 100 µM (inactive)	–	–	> 100 µM (inactive)	> 100 µM (inactive)
Brc1ccc(/C=N/C23CC4CC(CC(C4)C2)C3)cc1	> 100 µM (inactive)	> 100 µM (inactive)	> 100 µM (inactive)	> 100 µM (inactive)	> 100 µM (inactive)	> 100 µM (inactive)	> 100 µM (inactive)	> 100 µM (inactive)	> 100 µM (inactive)	> 100 µM (inactive)	> 100 µM (inactive)	> 100 µM (inactive)	> 100 µM (inactive)	–	> 100 µM (inactive)	> 100 µM (inactive)
Cc1cccc2[n+]1[C@H]1[C@H]([C@@H]3O[C@H]1c1ccccc13)[S+]([O-])N2 (some centres not stated)	> 100 µM (inactive)	> 100 µM (inactive)	34.4 µM (inactive)	43.8 µM (inactive)	–	–	63.2 µM (inactive)	24.4 µM (inactive)	32.3 µM (inactive)	–	23 µM (inactive)	37.9 µM (inactive)	11.9 µM (inactive)	–	61.1 µM (inactive)	–
O=C1/C(=C/c2ccc(Cl)cc2)CNC/C1=C\c1ccc(Cl)cc1	10.8 µM (inactive)	0.792 µM (active)	–	1.36 µM (inactive)	–	1.89 µM (inactive)	3.4 µM (inactive)	–	2.17 µM (inactive)	–	–	1.7 µM (inactive)	–	–	2.03 µM (inactive)	2.07 µM (inactive)
